Activity calls are given as the source filed them.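 How the source made its calls: active means GFP ratio to DMSO above 1.5 or below 0.66; inactive means the rest.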
Legend:
Experiment in all cases: TOR pathway GFP reporter clone modulation in yeast – S. cerevisiae, GFP-tagged clone panel, flow cytometry (AID 504473);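 further: median GFP fluorescence of the cells measured by high-throughput flow cytometry; test concentration not given here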
YBL087C = conditions: S. cerevisiae GFP-tagged strains, 3 h
YIL069C = conditions: S. cerevisiae GFP-tagged strains, 3 h
YDR453C = conditions: S. cerevisiae GFP-tagged strains, 3 h
YMR251W-A = conditions: S. cerevisiae GFP-tagged strains, 3 h
YDR399W = conditions: S. cerevisiae GFP-tagged strains, 3 h
YCR002C = conditions: S. cerevisiae GFP-tagged strains, 3 h
YBR139W = conditions: S. cerevisiae GFP-tagged strains, 3 h
YHR018C = conditions: S. cerevisiae GFP-tagged strains, 3 h
YEL007W = conditions: S. cerevisiae GFP-tagged strains, 3 h
YLR237W = conditions: S. cerevisiae GFP-tagged strains, 3 h
YHR203C = conditions: S. cerevisiae GFP-tagged strains, 3 h
YKL103C = conditions: S. cerevisiae GFP-tagged strains, 3 h
YKR039W = conditions: S. cerevisiae GFP-tagged strains, 3 h
YML004C = conditions: S. cerevisiae GFP-tagged strains, 3 h
YLL026W = conditions: S. cerevisiae GFP-tagged strains, 3 h
YML034W = conditions: S. cerevisiae GFP-tagged strains, 3 h
YGR034W = conditions: S. cerevisiae GFP-tagged strains, 3 h
YGL036W = conditions: S. cerevisiae GFP-tagged strains, 3 h
YGR121C = conditions: S. cerevisiae GFP-tagged strains, 3 h
YKR094C = conditions: S. cerevisiae GFP-tagged strains, 3 h
YML063W = conditions: S. cerevisiae GFP-tagged strains, 3 h
YLR367W = conditions: S. cerevisiae GFP-tagged strains, 3 h
YIL052C = conditions: S. cerevisiae GFP-tagged strains, 3 h
YNL068C = conditions: S. cerevisiae GFP-tagged strains, 3 h
YMR120C = conditions: S. cerevisiae GFP-tagged strains, 3 h
YLR058C = conditions: S. cerevisiae GFP-tagged strains, 3 h
YJL056C = conditions: S. cerevisiae GFP-tagged strains, 3 h
YNL142W = conditions: S. cerevisiae GFP-tagged strains, 3 h
YHR087W = conditions: S. cerevisiae GFP-tagged strains, 3 h
YKR093W = conditions: S. cerevisiae GFP-tagged strains, 3 h
YER081W = conditions: S. cerevisiae GFP-tagged strains, 3 h
YAL060W = conditions: S. cerevisiae GFP-tagged strains, 3 h
YEL071W = conditions: S. cerevisiae GFP-tagged strains, 3 h
YCR005C = conditions: S. cerevisiae GFP-tagged strains, 3 h
YMR105C = conditions: S. cerevisiae GFP-tagged strains, 3 h
YLR287C-A = conditions: S. cerevisiae GFP-tagged strains, 3 h
YHR141C = conditions: S. cerevisiae GFP-tagged strains, 3 h
YER156C = conditions: S. cerevisiae GFP-tagged strains, 3 h
YCL064C = conditions: S. cerevisiae GFP-tagged strains, 3 h
YIL043C = conditions: S. cerevisiae GFP-tagged strains, 3 h
YGR019W = conditions: S. cerevisiae GFP-tagged strains, 3 h
YNL214W = conditions: S. cerevisiae GFP-tagged strains, 3 h
YHR144C = conditions: S. cerevisiae GFP-tagged strains, 3 h
YPL265W = conditions: S. cerevisiae GFP-tagged strains, 3 h
YJL144W = conditions: S. cerevisiae GFP-tagged strains, 3 h
YOR182C = conditions: S. cerevisiae GFP-tagged strains, 3 h
[1] = target: General amino acid permease AGP1 (Saccharomyces cerevisiae S288c) (UniProt P25376); conditions: S. cerevisiae GFP-tagged strains, 3 h, YCL025C
General amino acid permease AGP1 (Saccharomyces cerevisiae S288c), sequence (P25376 whole entry, looked up): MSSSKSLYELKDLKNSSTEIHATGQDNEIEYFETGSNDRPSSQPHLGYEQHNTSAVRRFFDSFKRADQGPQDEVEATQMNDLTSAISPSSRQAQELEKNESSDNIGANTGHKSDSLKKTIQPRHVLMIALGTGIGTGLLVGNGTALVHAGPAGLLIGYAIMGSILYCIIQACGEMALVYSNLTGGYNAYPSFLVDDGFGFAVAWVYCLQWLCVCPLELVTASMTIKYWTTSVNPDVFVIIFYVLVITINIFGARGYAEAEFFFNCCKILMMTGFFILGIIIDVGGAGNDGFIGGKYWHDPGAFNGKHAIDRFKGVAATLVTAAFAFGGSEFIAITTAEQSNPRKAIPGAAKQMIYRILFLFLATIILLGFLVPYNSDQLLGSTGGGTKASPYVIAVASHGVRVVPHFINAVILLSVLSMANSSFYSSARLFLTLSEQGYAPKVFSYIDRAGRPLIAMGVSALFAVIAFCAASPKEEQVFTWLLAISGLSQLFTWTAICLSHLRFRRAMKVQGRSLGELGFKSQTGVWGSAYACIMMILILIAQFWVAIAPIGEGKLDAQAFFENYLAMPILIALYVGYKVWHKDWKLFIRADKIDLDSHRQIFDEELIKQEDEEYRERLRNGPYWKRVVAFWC

YOR038C = conditions: S. cerevisiae GFP-tagged strains, 3 h
YER151C = conditions: S. cerevisiae GFP-tagged strains, 3 h
YPR132W = conditions: S. cerevisiae GFP-tagged strains, 3 h
YDL205C = conditions: S. cerevisiae GFP-tagged strains, 3 h
YNL112W = conditions: S. cerevisiae GFP-tagged strains, 3 h
YDL204W = conditions: S. cerevisiae GFP-tagged strains, 3 h
YBR072W = conditions: S. cerevisiae GFP-tagged strains, 3 h
YBR248C = conditions: S. cerevisiae GFP-tagged strains, 3 h
YOL052C-A = conditions: S. cerevisiae GFP-tagged strains, 3 h
YML026C = conditions: S. cerevisiae GFP-tagged strains, 3 h
YML128C = conditions: S. cerevisiae GFP-tagged strains, 3 h
YMR307W = conditions: S. cerevisiae GFP-tagged strains, 3 h
YPL220W = conditions: S. cerevisiae GFP-tagged strains, 3 h
YOR371C = conditions: S. cerevisiae GFP-tagged strains, 3 h
YAL061W = conditions: S. cerevisiae GFP-tagged strains, 3 h
YBR208C = conditions: S. cerevisiae GFP-tagged strains, 3 h
YPR184W = conditions: S. cerevisiae GFP-tagged strains, 3 h
YEL063C = conditions: S. cerevisiae GFP-tagged strains, 3 h
YER117W = conditions: S. cerevisiae GFP-tagged strains, 3 h
YLR109W = conditions: S. cerevisiae GFP-tagged strains, 3 h
YFR031C-A = conditions: S. cerevisiae GFP-tagged strains, 3 h
YPL111W = conditions: S. cerevisiae GFP-tagged strains, 3 h
YOR173W = conditions: S. cerevisiae GFP-tagged strains, 3 h
YHL021C = conditions: S. cerevisiae GFP-tagged strains, 3 h
YLR185W = conditions: S. cerevisiae GFP-tagged strains, 3 h
YJR148W = conditions: S. cerevisiae GFP-tagged strains, 3 h
YGR088W = conditions: S. cerevisiae GFP-tagged strains, 3 h
YDL130W = conditions: S. cerevisiae GFP-tagged strains, 3 h
YIL051C = conditions: S. cerevisiae GFP-tagged strains, 3 h
YDR382W = conditions: S. cerevisiae GFP-tagged strains, 3 h
YNR001C = conditions: S. cerevisiae GFP-tagged strains, 3 h
YFR053C = conditions: S. cerevisiae GFP-tagged strains, 3 h
YIL066C = conditions: S. cerevisiae GFP-tagged strains, 3 h
YOR375C = conditions: S. cerevisiae GFP-tagged strains, 3 h
YLL039C = conditions: S. cerevisiae GFP-tagged strains, 3 h
YEL060C = conditions: S. cerevisiae GFP-tagged strains, 3 h
YLR142W = conditions: S. cerevisiae GFP-tagged strains, 3 h
YGL062W = conditions: S. cerevisiae GFP-tagged strains, 3 h
YGL135W = conditions: S. cerevisiae GFP-tagged strains, 3 h
YPL131W = conditions: S. cerevisiae GFP-tagged strains, 3 h
YPL150W = conditions: S. cerevisiae GFP-tagged strains, 3 h
YNL015W = conditions: S. cerevisiae GFP-tagged strains, 3 h
YKL119C = conditions: S. cerevisiae GFP-tagged strains, 3 h
YPR145W = conditions: S. cerevisiae GFP-tagged strains, 3 h
YDR070C = conditions: S. cerevisiae GFP-tagged strains, 3 h
YGL147C = conditions: S. cerevisiae GFP-tagged strains, 3 h
YOR063W = conditions: S. cerevisiae GFP-tagged strains, 3 h
YKL086W = conditions: S. cerevisiae GFP-tagged strains, 3 h
YOR136W = conditions: S. cerevisiae GFP-tagged strains, 3 h

GFP ratio to DMSO [1]: 0.961 (inactive)
Structure (SMILES): CNc1nc(N)c([N+](=O)[O-])c(Nc2cccc(Cl)c2)n1
GFP ratio to DMSO (YBL087C): 0.955 (inactive) | GFP ratio to DMSO (YIL069C): 1.1 (inactive) | GFP ratio to DMSO (YDR453C): 1.02 (inactive) | GFP ratio to DMSO (YMR251W-A): 1.01 (inactive) | GFP ratio to DMSO (YDR399W): 0.977 (inactive) | GFP ratio to DMSO (YCR002C): 0.916 (inactive) | GFP ratio to DMSO (YBR139W): 0.935 (inactive) | GFP ratio to DMSO (YHR018C): 0.948 (inactive) | GFP ratio to DMSO (YEL007W): 0.89 (inactive) | GFP ratio to DMSO (YLR237W): 0.77 (inactive) | GFP ratio to DMSO (YHR203C): 1.04 (inactive) | GFP ratio to DMSO (YKL103C): 1.21 (inactive) | GFP ratio to DMSO (YKR039W): 1.35 (inactive) | GFP ratio to DMSO (YML004C): 0.875 (inactive) | GFP ratio to DMSO (YLL026W): 1.07 (inactive) | GFP ratio to DMSO (YML034W): 0.842 (inactive) | GFP ratio to DMSO (YGR034W): 1.01 (inactive) | GFP ratio to DMSO (YGL036W): 0.781 (inactive) | GFP ratio to DMSO (YGR121C): 1.02 (inactive) | GFP ratio to DMSO (YKR094C): 1.06 (inactive) | GFP ratio to DMSO (YML063W): 1.04 (inactive) | GFP ratio to DMSO (YLR367W): 1.01 (inactive) | GFP ratio to DMSO (YIL052C): 0.864 (inactive) | GFP ratio to DMSO (YNL068C): 0.946 (inactive) | GFP ratio to DMSO (YMR120C): 0.553 | GFP ratio to DMSO (YLR058C): 0.859 (inactive) | GFP ratio to DMSO (YJL056C): 0.808 (inactive) | GFP ratio to DMSO (YNL142W): 1.32 (inactive) | GFP ratio to DMSO (YHR087W): 0.926 (inactive) | GFP ratio to DMSO (YKR093W): 1.61 | GFP ratio to DMSO (YER081W): 1.21 (inactive) | GFP ratio to DMSO (YAL060W): 0.91 (inactive) | GFP ratio to DMSO (YEL071W): 2.01 | GFP ratio to DMSO (YCR005C): 2.27 | GFP ratio to DMSO (YMR105C): 1.17 (inactive) | GFP ratio to DMSO (YLR287C-A): 1.04 (inactive) | GFP ratio to DMSO (YHR141C): 1.04 (inactive) | GFP ratio to DMSO (YER156C): 1.01 (inactive) | GFP ratio to DMSO (YCL064C): 0.902 (inactive) | GFP ratio to DMSO (YIL043C): 1 (inactive) | GFP ratio to DMSO (YGR019W): 1.02 (inactive) | GFP ratio to DMSO (YNL214W): 0.938 (inactive) | GFP ratio to DMSO (YHR144C): 0.837 (inactive) | GFP ratio to DMSO (YPL265W): 1.62 | GFP ratio to DMSO (YJL144W): 0.983 (inactive) | GFP ratio to DMSO (YOR182C): 1.02 (inactive) | GFP ratio to DMSO (YOR038C): 0.974 (inactive) | GFP ratio to DMSO (YER151C): 0.926 (inactive) | GFP ratio to DMSO (YPR132W): 1.13 (inactive) | GFP ratio to DMSO (YDL205C): 0.943 (inactive) | GFP ratio to DMSO (YNL112W): 1.07 (inactive) | GFP ratio to DMSO (YDL204W): 0.851 (inactive) | GFP ratio to DMSO (YBR072W): 0.849 (inactive) | GFP ratio to DMSO (YBR248C): 1.01 (inactive) | GFP ratio to DMSO (YOL052C-A): 1.17 (inactive) | GFP ratio to DMSO (YML026C): 0.93 (inactive) | GFP ratio to DMSO (YML128C): 0.923 (inactive) | GFP ratio to DMSO (YMR307W): 0.996 (inactive) | GFP ratio to DMSO (YPL220W): 1.07 (inactive) | GFP ratio to DMSO (YOR371C): 0.826 (inactive) | GFP ratio to DMSO (YAL061W): 0.887 (inactive) | GFP ratio to DMSO (YBR208C): 1.16 (inactive) | GFP ratio to DMSO (YPR184W): 0.958 (inactive) | GFP ratio to DMSO (YEL063C): 1.09 (inactive) | GFP ratio to DMSO (YER117W): 0.883 (inactive) | GFP ratio to DMSO (YLR109W): 1.3 (inactive) | GFP ratio to DMSO (YFR031C-A): 1.02 (inactive) | GFP ratio to DMSO (YPL111W): 1.25 (inactive) | GFP ratio to DMSO (YOR173W): 0.891 (inactive) | GFP ratio to DMSO (YHL021C): 1.11 (inactive) | GFP ratio to DMSO (YLR185W): 1.04 (inactive) | GFP ratio to DMSO (YJR148W): 1.71 | GFP ratio to DMSO (YGR088W): 1.07 (inactive) | GFP ratio to DMSO (YDL130W): 1.06 (inactive) | GFP ratio to DMSO (YIL051C): 0.981 (inactive) | GFP ratio to DMSO (YDR382W): 1.1 (inactive) | GFP ratio to DMSO (YNR001C): 1.17 (inactive) | GFP ratio to DMSO (YFR053C): 0.888 (inactive) | GFP ratio to DMSO (YIL066C): 0.868 (inactive) | GFP ratio to DMSO (YOR375C): 1.17 (inactive) | GFP ratio to DMSO (YLL039C): 0.725 (inactive) | GFP ratio to DMSO (YEL060C): 0.826 (inactive) | GFP ratio to DMSO (YLR142W): 0.835 (inactive) | GFP ratio to DMSO (YGL062W): 1.65 | GFP ratio to DMSO (YGL135W): 1.07 (inactive) | GFP ratio to DMSO (YPL131W): 1.09 (inactive) | GFP ratio to DMSO (YPL150W): 0.863 (inactive) | GFP ratio to DMSO (YNL015W): 0.947 (inactive) | GFP ratio to DMSO (YKL119C): 0.951 (inactive) | GFP ratio to DMSO (YPR145W): 1.32 (inactive) | GFP ratio to DMSO (YDR070C): 1.14 (inactive) | GFP ratio to DMSO (YGL147C): 0.988 (inactive) | GFP ratio to DMSO (YOR063W): 1.1 (inactive) | GFP ratio to DMSO (YKL086W): 0.896 (inactive) | GFP ratio to DMSO (YOR136W): 1.19 (inactive)
